Measurements from patent US20220193253A1, “SLOW-RELEASE CYTOKINE CONJUGATES” (ProLynx LLC, priority 2019, published 2022).
“Also recorded” adds a separate entry of the source.

What was measured:
[1] = Pharmacokinetics of [aminopropyl]-IL-15 released from microsphere-IL-15; type: in vivo, C57BL/6J mice
Protocol: The microsphere-IL-15 slurry of Example 10 (275 nmol protein/mL) was diluted in 25 mM Na citrate buffer pH 5.9 containing 500 mM NaCl, 0.05% tween-20 and 1.25% (w/v) hyaluronic acid. For studies that required various doses of microsphere-IL15, serial dilutions were used obtain the desired microsphere-IL-15 concentration. In all cases, aseptic conditions were used to handle and prepare the microsphere conjugate. Syringes with fixed needles (27G) were backfilled with the conjugate (100 μL). The contents of the syringes were administered either s.c. or i.p. to normal, male C57BL/6J mice. Blood samples were drawn at −24, 4, 8, 24, 48, 96, 168 and 240 hours from alternating groups consisting of 3 mice each. HALT protease inhibitor cocktail (ThermoFisher Scientific) was added to all plasma samples prior to being frozen at −80° C. until analysis.
ELISAs for hIL-15 were performed according to the manufacturer's instructions (R&D Systems, hIL-15 Quantikine, Catalog #D1500) to determine the rhIL-15 plasma. Plasma samples were thawed on ice prior to dilution in the standard diluent provided by the manufacturer. The 4, 8, hour samples were diluted 50-fold, the 24 hour samples was diluted twenty-five fold, and the pre-bleed, 48, 96, 168 and 240 hour samples were diluted ten-fold. hIL-15 concentrations were plot as a function of time and fit using GraphPad Prism software.
Pharmacokinetics of [aminopropyl]-IL-15 released from the microsphere conjugate were measured in normal C57BL/6J mice. Mice were dosed with 2.4 nmol conjugated protein (200 μL injection). […] After approximately 120 hours, the observed concentration quickly decreases (FIG. 11). A one phase decay model fit of data through 120 results in a half-life of at least 200 hours. […] A second injection of MS-IL-15 (50 μg) increases the measured plasma IL-15 at 248 h to a similar concentration of the initial dose.

[2] = test system: CD44hiCD8+ T cells and NK cells in PBMCs; experiment: Pharmacodynamics of [aminopropyl]-IL-15 released from microsphere-IL-15; type: in vivo, C57BL/6J mice; conditions: for expansion of CD44hiCD8+ T cells / expansion of NK cells: single dose 2.5 μg; for expansion of NK cells in PBMCs: single s.c. injection 12.5, 25 or 50 μg
Protocol: For flow cytometry analysis, PMBCs were prepared and surface staining was performed to quantitate NK1.1, CD3, CD8, and CD44 expressing cells. Commercial FITC-, PE- or allophycocyanin-conjugated antibodies were used. Sample data were collected on a FACScan flow cytometer (BD Biosciences) and analyzed using FlowJo cytometry analysis software (TreeStar, Ashland, Oreg.).
Pharmacodynamics of [aminopropyl]-IL-15 released from the microsphere-IL-15 of Example 10 were measured in normal, male C57BL/6J mice (n=3/group) (FIG. 14). Mice were dosed with microsphere-IL-15 (2.5, 12.5, 25 or 50 μg conjugated protein) prepared in Example 10. PMBCs were prepared and surface stained for flow cytometry analysis of NK1.1, CD3, CD8, and CD44 expressing cells. Commercial FITC-, PE- or allophycocyanin-conjugated antibodies were used. Sample data were collected on a FACScan flow cytometer (BD Biosciences) and analyzed using FlowJo cytometry analysis software (TreeStar, Ashland, Oreg.).

[3] = test system: Foxp3+CD4+ T-cells and CD8+ T-cells; experiment: Pharmacodynamics of microsphere-IL-2[N88R,C125S] in NOD mice (flow cytometry); type: in vivo
Protocol: Three groups of six NOD mice were used to determine the PK/PD of [aminopropyl]-IL-2[N88R,C125S] released from the microsphere-IL-2[N88R,C125S] conjugate. […] The second group was administered a subcutaneous injection of empty microspheres, in which cyclooctynes were capped with N3(CH2CH2O)7H. The third group was administered a single subcutaneous injection of the microsphere-IL-2[N88R,C125S] of Example 4 (0.5, 1, 5, 10 or 19 mg of protein/kg). Plasma, peripheral blood mononuclear cells (PBMCs) and organ tissues were prepared and analyzed according to the description in figure legends. Flow cytometric analysis of lymphocytes was performed to monitor changes in T-cell populations. The spleen and lymph nodes and islets were isolated and single cell suspensions were prepared. Surface-staining was performed following standard cell surface immunofluorescence staining for flow cytometry. Fixation and intracellular staining followed protocols from the eBioscience Foxp3/Transcription Factor Staining Buffer Set (ThermoFisher Scientific). Antibodies used were against CD3, CD4, CD8, CD25, CD44 CD45, and FoxP3; all were from commercial vendors. Stained single cell suspension were analyzed using a LSRII flow cytometer (BD Biosciences).
The percentage CD8+ cells found in the spleen and PBMCs were approximately 11% and 19% respectively. These percentages increased to approximately 25% and 60% respectively, when treated with the microsphere-IL-2[N88R,C125S]. NOD mice were administered IL2-mutein (QDx5, 25,000 units), a single injection of empty microspheres or microsphere-IL-2[N88R,C125S](18 mg/kg). Mice were sacrificed 2 hours after the last dose on day 5.
To determine an effective dose that would expand the Foxp3^+CD4^+Tcells population without the activation of CD8′ cells, a dose titration study of microsphere-IL-2[N88R,C125S] was performed. Four concentrations of the microsphere-IL-2[N88R,C125S](0.5 mg/kg, 1 mg/kg, 5 mg/kg and 10 mg/kg) were tested and the pharmacodynamics were monitored through PBMCs over two weeks. […] Foxp3^+CD4^+T-cell expansion peaked at four days and returned to baseline levels at day 14 for all doses (FIG. 9 A).

[4] = test system: Treg cells over Teff and NK cells; conditions: cited from earlier work
CD8+ effector Tmem cells = conditions: continuous infusion over 10 days; cited from earlier work
cell proliferation = conditions: cited from earlier work
[5] = test system: T-cells in the spleen and islets; experiment: Pharmacodynamics of IL2 and IL2[N88R,C125S] in NOD mice (flow cytometry of spleen and islets); type: in vivo; conditions: daily injections 25,000 units for five days
Protocol: Mice were sacrificed 2 hours after the last injection and the spleen and pancreas were harvested for flow cytometry analysis to measure changes in total number of T-cells and their differentiation in the spleen and islets.

[6] = 2.5, 12.5, 25 or 50 μg conjugated protein
[7] = single sc injection 12.5, 25 or 50 μg
[8] = single injection 18 mg/kg, day 5

## MS-IL-15: BCN-activated PEG hydrogel microspheres loaded with linker-IL-15 (MeSO2 linker, N-terminal reductive alkylation)
[1]; 2.4 nmol conjugated protein
  change in average mouse body weight: no significant change
[1]; 2.4 nmol conjugated protein, initial 25.1±1.3 g
  final average mouse body weight: 25.1 ± 1.4 g
[2]; [6]
  change in average body weight: no significant change
  clinical observation: injection site reaction: no injection site reaction
[2]; 12.5, 25 or 50 μg
  fold expansion of NK cells at peak: 2-3 fold
[2]; highest dose 50 μg
  CD44hiCD8+ T cells levels at 28 days: two-fold above the control group
[2]; initial 25.1±1.3 g
  final average body weight: 25.1 ± 1.4 g
[2]; single 50 ug injection
  duration of expansion of CD44hiCD8+ T cells: 28 days
[2]
  expansion of CD44hiCD8+ T cells: no observed expansion
  expansion of NK cells: not observed
  expansion of NK cells in PBMCs: dose dependent expansion
[2]; listed as microsphere-IL15
  expansion of NK cells in PBMCs: expands
[2]; [7]
  CD44hiCD8+ T cells remained elevated above the control group through: 21 days
  expansion of CD44hiCD8+ T cells in PBMCs: dose dependent expansion
  fold expansion of CD44hiCD8+ T cells at peak: two to four fold
  time of peak CD44hiCD8+ T cell expansion post treatment: 5 days
[2]; single sc injection 12.5, 25 or 50 μg, listed as microsphere-IL15
  expansion of CD44hiCD8+ T cells in PBMCs: expands

## microsphere-IL-2[N88R,C125S]: PEG hydrogel microspheres carrying linker-N-terminal aminopropyl-IL-2[N88R,C125S] (MeSO2 linker, reductive alkylation); releases [aminopropyl]-IL-2[N88R,C125S]
[3]; doses 0.5-10 mg/kg, PBMCs
  percentage / activation of CD8+ cells, dose titration: did not increase; also recorded: avoids activation
[3]; [8]
  expansion of Foxp3+CD4+ T-cells in spleen and PBMC: massive expansion
  percentage CD8+ cells, PBMCs: 60%
  percentage of T-cells that were Foxp3+CD4+ T-cells, PBMC: ~55%
  percentage of T-cells that were Foxp3+CD4+ T-cells, spleen: ~70%
[3]; single injection 0.5, 1, 5, 10 mg/kg, two weeks
  expansion of Foxp3+CD4+ T-cells in PBMCs, dose titration: dose dependent expansion; also recorded: preferentially expands

## [aminopropyl]-IL-15: IL-15 with N-terminal aminopropyl remnant, released from microsphere-IL-15
[1]; 50 μg
  AUCip compared to AUCsc: nearly two-fold higher
[1]; released from MS-IL-15 50 μg i.p.
  AUCip: 0.0252 µM·h
[1]; released from MS-IL-15 50 μg s.c.
  AUCsc: 0.0149 µM·h

## BAY 50-4798: IL-2 mutein having an arginine replacing asparagine at position 88, SEQ ID No: 2
[4]
  increase in selectivity for activation of Treg cells over Teff and NK cells: 3,000 fold

## rhIL-15: native IL-15, SEQ ID No: 12 [reference compound]
[2]
  expansion of CD44hiCD8+ T cells: no observed expansion
  expansion of NK cells: not observed
CD8+ effector Tmem cells
  expansion of CD8+ effector Tmem cells in the peripheral blood: 100 x

## IL-15[N72D]: IL-15 mutein with enhanced receptor agonism, SEQ ID No: 15
Cell proliferation
  fold increase in biological activity over native IL-15: 4-5 fold

## Proleukin: Aldesleukin (recombinant IL-2), used as native IL-2 comparator in NOD mice [reference compound]
[5]
  effect on CD4+ and CD8+ effector/memory T-cells in the spleen: increase in both T-cell populations
  effect on the T-cells in the islets compared to PBS vehicle: little to no effect
